Test results reported in US20240294541A1, “COMPOUNDS CONSTITUTING C20-MODIFIED SALINOMYCIN DERIVATIVES, A METHOD FOR OBTAINING THE SAME, A COMPOSITION CONTAINING THE SAME AND A USE OF SAID COMPOUNDS” (FILECLO SPOLKA Z OGRANICZONA ODPOWIEDZIALNOSCIA, priority 2021, published 2024).
Where a name gives a salt, the structure may show the parent alone. Read-outs that look alike come from different tables or passages of the source.

Key:
Assay type in all cases: cell-based
[1] = system: PFSK-1 (malignant primitive neuroectodermal tumour); assay: In vitro cytotoxicity, SRB assay, PFSK-1; details: for IC50: Homo sapiens, PFSK-1, 72 h with compound, SRB, n/a = non-active compound, read-out: PFSK-1 IC50; for PFSK-1 SI: selectivity coefficient vs normal BALB/3T3 cells
[2] = system: NCI-H23 (human lung cancer); assay: In vitro cytotoxicity, SRB assay, NCI-H23; details: for IC50: Homo sapiens, NCI-H23, 72 h with compound, SRB, n/a = non-active compound, read-out: NCI-H23 IC50; for NCI-H23 SI: selectivity coefficient vs normal BALB/3T3 cells
[3] = system: BALB/3T3 (normal mouse fibroblasts); assay: In vitro cytotoxicity, SRB assay, normal BALB/3T3 fibroblasts
[4] = system: MIA PaCa-2 (human pancreatic cancer); assay: cells; details: for IC50: Homo sapiens, MIA PaCa-2, 72 h with compound, SRB, n/a = non-active compound, read-out: MIA PaCa-2 IC50; for MIA PaCa-2 SI: selectivity coefficient vs normal BALB/3T3 cells
[5] = system: SNU-16 (human gastric cancer); assay: cells; details: for IC50: Homo sapiens, SNU-16, 72 h with compound, MTT, n/a = non-active compound, read-out: SNU-16 IC50; for SNU-16 SI: selectivity coefficient vs normal BALB/3T3 cells
A375 (human melanoma) = assay: In vitro cytotoxicity, SRB assay, A375; details: for IC50: Homo sapiens, A-375, 72 h with compound, SRB, n/a = non-active compound, read-out: A375 IC50; for A375 SI: selectivity coefficient vs normal BALB/3T3 cells
[6] = system: PLC/PRF/5 (human liver cancer); assay: cells; details: for IC50: Homo sapiens, PLC-PRF-5, 72 h with compound, SRB, n/a = non-active compound, read-out: PLC/PRF/5 IC50; for PLC/PRF/5 SI: selectivity coefficient vs normal BALB/3T3 cells
[7] = system: A2780 (human ovarian cancer); assay: In vitro cytotoxicity, SRB assay, A2780; details: for IC50: Homo sapiens, A2780, 72 h with compound, SRB, n/a = non-active compound, read-out: A2780 IC50; for A2780 SI: selectivity coefficient vs normal BALB/3T3 cells
[8] = system: KG-1 (human acute myeloid leukaemia); assay: In vitro cytotoxicity, MTT assay, KG-1; details: for IC50: Homo sapiens, 72 h with compound, MTT, n/a = non-active compound; for KG-1 SI: selectivity coefficient vs normal BALB/3T3 cells
[9] = system: A2780Cis (cisplatin-resistant human ovarian cancer); assay: In vitro cytotoxicity, SRB assay, A2780Cis; details: for IC50: Homo sapiens, A2780cis
[10] = system: MV-4-11 (human biphenotypic leukaemia); assay: In vitro cytotoxicity, MTT assay, MV-4-11; details: for IC50: Homo sapiens, MV4-11, read-out: IC50 (nM) MV4-11
[11] = Mus musculus, BALB/3T3, normal cells, 72 h with compound, SRB, n/a = non-active compound, read-out: BALB/3T3 IC50
[12] = 72 h, read-out: A2780Cis IC50 (nM)
[13] = Table 5, BALB/3T3 normal mouse fibroblasts, read-out: IC50 (nM) BALB3T3 normal cells

| Structure (SMILES) | IC50 [1] | IC50 [2] | IC50 [5] | IC50 [6] | IC50 [7] | IC50 [8] | A2780Cis RI [9] | IC50 [9, 12] | SI MV4-11 [10] | IC50 [10] | IC50 [3, 13] | SI A2780Cis [9] | IC50 ([9]; read-out: IC50 (nM) A2780Cis) | other results |
| --- | --- | --- | --- | --- | --- | --- | --- | --- | --- | --- | --- | --- | --- | --- |
| CCNC(=S)N[C@@H]1C=C[C@]2(O[C@H]([C@@H](CC)C(=O)[C@@H](C)[C@@H](O)[C@H](C)[C@@H]3O[C@@H]([C@@H](CC)C(=O)O)CC[C@@H]3C)[C@@H](C)C[C@H]2C)O[C@@]12CC[C@@](C)([C@H]1CC[C@](O)(CC)[C@H](C)O1)O2 [FLC-00339-1 Na] | 16.1 nM | 4.38 nM | 17.5 nM | 10.8 nM | 2.27 nM | 11.1 nM | 0.9 | 2.04 nM |  |  |  |  |  | PFSK-1 SI [1]: 3.4; NCI-H23 SI [2]: 12.4; IC50 [3, 11]: 54.5 nM; IC50 [4]: 17.1 nM; MIA PaCa-2 SI [4]: 3.2; SNU-16 SI [5]: 3.1; IC50 (A375 (human melanoma)): 26.9 nM; A375 SI (A375 (human melanoma)): 2.0; PLC/PRF/5 SI [6]: 5.0; A2780 SI [7]: 24.0; KG-1 SI [8]: 4.9; A2780Cis SI [9]: 26.7 |
| CC[C@@H](C(=O)[C@@H](C)[C@@H](O)[C@H](C)[C@@H]1O[C@@H]([C@@H](CC)C(=O)O)CC[C@@H]1C)[C@H]1O[C@]2(C=C[C@@H](NC(=S)Nc3ccc(F)cc3)[C@]3(CC[C@@](C)([C@H]4CC[C@](O)(CC)[C@H](C)O4)O3)O2)[C@H](C)C[C@@H]1C [FLC-00340-1 Na] | 9.37 nM | 8.64 nM | 16.7 nM | 19.1 nM | 2.41 nM | 24.4 nM | 0.8 | 1.84 nM |  |  |  |  |  | PFSK-1 SI [1]: 6.2; NCI-H23 SI [2]: 6.7; IC50 [3, 11]: 57.7 nM; IC50 [4]: 33.9 nM; MIA PaCa-2 SI [4]: 1.7; SNU-16 SI [5]: 3.5; IC50 (A375 (human melanoma)): 31.2 nM; A375 SI (A375 (human melanoma)): 1.8; PLC/PRF/5 SI [6]: 3.0; A2780 SI [7]: 24.0; KG-1 SI [8]: 2.4; A2780Cis SI [9]: 31.4 |
| CC[C@@H](C(=O)[C@@H](C)[C@@H](O)[C@H](C)[C@@H]1O[C@@H]([C@@H](CC)C(=O)O)CC[C@@H]1C)[C@H]1O[C@]2(C=C[C@@H](NC(=O)NS(=O)(=O)c3ccc(C)cc3)[C@]3(CC[C@@](C)([C@H]4CC[C@](O)(CC)[C@H](C)O4)O3)O2)[C@H](C)C[C@@H]1C [FLC-00364-1] | 5600 nM | 4790 nM | 5380 nM | 4480 nM | 2600 nM | 3700 nM | 0.4 | 1130 nM |  |  |  |  |  |  |
| CC[C@@H](C(=O)[C@@H](C)[C@@H](O)[C@H](C)[C@@H]1O[C@@H]([C@@H](CC)C(=O)O)CC[C@@H]1C)[C@H]1O[C@]2(C=C[C@@H](NC(=O)NS(=O)(=O)c3ccccc3)[C@]3(CC[C@@](C)([C@H]4CC[C@](O)(CC)[C@H](C)O4)O3)O2)[C@H](C)C[C@@H]1C [FLC-00365-1] | 6200 nM |  | 5830 nM |  | 3480 nM | 8000 nM | 0.9 | 3020 nM |  |  |  |  |  |  |
| CC[C@@H](C(=O)[C@@H](C)[C@@H](O)[C@H](C)[C@@H]1O[C@@H]([C@@H](CC)C(=O)O)CC[C@@H]1C)[C@H]1O[C@]2(C=C[C@@H](NC(=O)NC(=O)C(Cl)(Cl)Cl)[C@]3(CC[C@@](C)([C@H]4CC[C@](O)(CC)[C@H](C)O4)O3)O2)[C@H](C)C[C@@H]1C [FLC-00367-1] | 689 nM | 682 nM | 368 nM | 940 nM | 322 nM | 666 nM | 0.8 | 266 nM |  |  |  |  |  | PFSK-1 SI [1]: 7.4; NCI-H23 SI [2]: 7.4; IC50 [3, 11]: 5080 nM; IC50 [4]: 3220 nM; MIA PaCa-2 SI [4]: 1.6; SNU-16 SI [5]: 13.8; IC50 (A375 (human melanoma)): 5920 nM; A375 SI (A375 (human melanoma)): 0.9; PLC/PRF/5 SI [6]: 5.4; A2780 SI [7]: 15.7; KG-1 SI [8]: 7.6; A2780Cis SI [9]: 19.1 |
| CCOC(=O)C(=O)N[C@@H]1C=C[C@]2(O[C@H]([C@@H](CC)C(=O)[C@@H](C)[C@@H](O)[C@H](C)[C@@H]3O[C@@H]([C@@H](CC)C(=O)O)CC[C@@H]3C)[C@@H](C)C[C@H]2C)O[C@@]12CC[C@@](C)([C@H]1CC[C@](O)(CC)[C@H](C)O1)O2 [FLC-00373-1, C20-aminosalinomycin oxalate derivative] |  |  |  |  | 6690 nM | 9060 nM |  |  |  |  |  |  |  |  |
| CC[C@@H](C(=O)[C@@H](C)[C@@H](O)[C@H](C)[C@@H]1O[C@@H]([C@@H](CC)C(=O)O)CC[C@@H]1C)[C@H]1O[C@]2(C=C[C@@H](NC(=O)NCCc3cccnc3)[C@]3(CC[C@@](C)([C@H]4CC[C@](O)(CC)[C@H](C)O4)O3)O2)[C@H](C)C[C@@H]1C [FLC-00567-1•Na] |  |  |  |  |  |  |  |  | 25.0 | 34 nM | 848 nM | 54.2 | 15.7 nM |  |
| CC[C@@H](C(=O)[C@@H](C)[C@@H](O)[C@H](C)[C@@H]1O[C@@H]([C@@H](CC)C(=O)O)CC[C@@H]1C)[C@H]1O[C@]2(C=C[C@@H](NC(=O)OCCN3CCOCC3)[C@]3(CC[C@@](C)([C@H]4CC[C@](O)(CC)[C@H](C)O4)O3)O2)[C@H](C)C[C@@H]1C [FLC-00570-1•Na] |  |  |  |  |  |  |  |  | 14.6 | 43.7 nM | 636 nM | 21.2 | 30 nM |  |
| CC[C@@H](C(=O)[C@@H](C)[C@@H](O)[C@H](C)[C@@H]1O[C@@H]([C@@H](CC)C(=O)O)CC[C@@H]1C)[C@H]1O[C@]2(C=C[C@@H](NC(=O)OCCC(C)(C)O)[C@]3(CC[C@@](C)([C@H]4CC[C@](O)(CC)[C@H](C)O4)O3)O2)[C@H](C)C[C@@H]1C [FLC-00577-1•Na] |  |  |  |  |  |  |  |  | 20.4 | 42.8 nM | 874 nM | 30.0 | 29.1 nM |  |
| CC[C@@H](C(=O)[C@@H](C)[C@@H](O)[C@H](C)[C@@H]1O[C@@H]([C@@H](CC)C(=O)O)CC[C@@H]1C)[C@H]1O[C@]2(C=C[C@@H](NC(=O)c3ccccc3C(F)(F)F)[C@]3(CC[C@@](C)([C@H]4CC[C@](O)(CC)[C@H](C)O4)O3)O2)[C@H](C)C[C@@H]1C [FLC-00578-1•Na] |  |  |  |  |  |  |  |  | 59.8 | 5.99 nM | 358 nM | 184.9 | 1.94 nM |  |
| CC[C@@H](C(=O)[C@@H](C)[C@@H](O)[C@H](C)[C@@H]1O[C@@H]([C@@H](CC)C(=O)O)CC[C@@H]1C)[C@H]1O[C@]2(C=C[C@@H](NC(=O)c3cccc(C(F)(F)F)c3)[C@]3(CC[C@@](C)([C@H]4CC[C@](O)(CC)[C@H](C)O4)O3)O2)[C@H](C)C[C@@H]1C [FLC-00579-1•Na] |  |  |  |  |  |  |  |  | 8.5 | 188 nM | 1590 nM | 22.3 | 71.4 nM |  |
| CC[C@@H](C(=O)[C@@H](C)[C@@H](O)[C@H](C)[C@@H]1O[C@@H]([C@@H](CC)C(=O)O)CC[C@@H]1C)[C@H]1O[C@]2(C=C[C@@H](NC(=O)OC3CCOCC3)[C@]3(CC[C@@](C)([C@H]4CC[C@](O)(CC)[C@H](C)O4)O3)O2)[C@H](C)C[C@@H]1C [FLC-00580-1•Na] |  |  |  |  |  |  |  |  | 32.5 | 6.51 nM | 211 nM | 94.4 | 2.24 nM |  |
